Reference: PubChem BioAssay (NCI)
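Five concentrations, 48 hours, 96-well plates. The concentration for 50% growth inhibition is given as GI50. TGI denotes the concentration required for complete inhibition of growth.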

How the values were obtained:
Assay in all cases: DTP human tumour cell line panel, 48 h
U251 CNS = tested on: U251 CNS
RPMI-8226 leukemia = tested on: RPMI-8226 leukemia
SNB-75 CNS = tested on: SNB-75 CNS
UACC-62 melanoma = tested on: UACC-62 melanoma
A498 renal = tested on: A498 renal
LOX IMVI melanoma = tested on: LOX IMVI melanoma
IGROV1 ovarian = tested on: IGROV1 ovarian
786-0 renal = tested on: 786-0 renal
HOP-92 NSCLC = tested on: HOP-92 NSCLC
HL-60(TB) leukemia = tested on: HL-60(TB) leukemia

| SMILES | TGI (U251 CNS) [µM] | TGI (RPMI-8226 leukemia) [µM] | TGI (SNB-75 CNS) [µM] | TGI (UACC-62 melanoma) [µM] | TGI (A498 renal) [µM] | TGI (LOX IMVI melanoma) [µM] | TGI (IGROV1 ovarian) [µM] | TGI (786-0 renal) [µM] | TGI (HOP-92 NSCLC) [µM] | TGI (HL-60(TB) leukemia) [µM] | GI50 (U251 CNS) [µM] | GI50 (RPMI-8226 leukemia) [nM] | GI50 (SNB-75 CNS) [µM] | GI50 (UACC-62 melanoma) [µM] | GI50 (A498 renal) [µM] | GI50 (LOX IMVI melanoma) [nM] | GI50 (IGROV1 ovarian) [nM] | GI50 (786-0 renal) [µM] | GI50 (HOP-92 NSCLC) [µM] | GI50 (HL-60(TB) leukemia) [nM] |
| --- | --- | --- | --- | --- | --- | --- | --- | --- | --- | --- | --- | --- | --- | --- | --- | --- | --- | --- | --- | --- |
| Cc1c(NC(=O)C(=O)N=NC(=O)c2ccncc2)c(O)c2ccccc2c1O | 28.1 | > 82 | 36.2 | 6.07 | 43.5 | 19.1 | 28.5 | 59.2 | 33.5 | > 67.5 | – | – | – | – | – | – | – | – | – | – |
| O=[N+]([O-])c1ccc(N/N=C\c2cc(Cl)ccc2O)nc1 | 12.1 | > 100 | 21.3 | 34.1 | > 100 | 8.47 | 4.69 | 11.2 | > 100 | 8.02 | 0.51 | 987 | 1.55 | 3.18 | 17 | 457 | 1200 | 2.18 | 6.68 | 650 |
| O=C1C2=C(c3ccccc31)C(c1cccc(Cl)c1)NC(=S)N2 (stereo not given) | > 100 | > 100 | > 100 | > 100 | > 100 | – | > 100 | > 100 | > 100 | > 100 | – | – | – | – | – | – | – | – | – | – |
| N[C@H]1C2C3CC4C5CC(C42)C1(c1ccccc1)C53 (stereo not given in full) | > 100 | > 100 | > 100 | > 100 | > 100 | > 100 | > 100 | > 100 | > 100 | > 100 | – | – | – | – | – | – | – | – | – | – |
| ClC(=Nc1cccc2ccccc12)N(c1ccccc1)c1ccccc1 | > 100 | 89.3 | > 100 | > 100 | > 100 | > 100 | > 100 | > 100 | – | – | – | – | – | – | – | – | – | – | – | – |
| Cn1nc(-c2ccccc2NC(=O)C(F)(F)F)c(=O)n(C)c1=S | > 100 | – | 59.4 | – | – | > 100 | > 100 | > 100 | 50.7 | – | – | – | – | – | – | – | – | – | – | – |
| CC1=COC(=O)c2ccccc2N1 | > 100 | > 100 | > 100 | > 100 | – | > 100 | > 100 | > 100 | > 100 | > 100 | – | – | – | – | – | – | – | – | – | – |
| CCOP(=O)(OCC)C1C(=O)O[C@H]2CCCC[C@@H]12 (stereo not given in full) | > 100 | > 100 | > 100 | > 100 | > 100 | > 100 | > 100 | > 100 | – | – | – | – | – | – | – | – | – | – | – | – |
| CC(=O)c1ccc(Nc2cc(-n3ccnc3)nc3ccccc23)cc1 | > 100 | 9.84 | > 100 | 92.8 | – | – | > 100 | 41.3 | 29.4 | – | 32.6 | 3240 | 38.2 | 19.2 | – | – | > 100000 | 7.86 | 4.15 | – |
| Cc1ccc2c(c1)NC(c1ccc(C(=O)O)cc1)c1cccn1-2 (stereo not given) | > 100 | > 100 | 39.6 | > 100 | 64.9 | > 100 | – | 43.1 | – | – | – | – | – | – | – | – | – | – | – | – |
| C/C(=N\N(C)C)c1sc(-n2nc(-c3ccccc3)cc2-c2ccccc2)nc1C | > 100 | – | 81.1 | > 100 | > 100 | 35.3 | > 100 | > 100 | > 100 | > 100 | – | – | – | – | – | – | – | – | – | – |
